Assay results reported in US7322965B2, “Infection-resistant medical devices” (priority 2002, dated 2008).
Values after ≈ are worked out from the molar mass of the structure shown. “Also recorded” adds a separate entry of the source.

How the values were obtained:
S. aureus UC-20205 = assay: Determination of minimum inhibitory concentration (microdilution); assay type: cell-based; conditions: Staphylococcus aureus, UC20205, 18 h
S. aureus UC-20206 = assay: as above; assay type: cell-based; conditions: Staphylococcus aureus, UC20206, 18 h
S. hominis SP2 = assay: Microtiter-plate adherence assay on polystyrene, nonadherent reference strain; assay type: cell-based; conditions: data not shown
Experimental: Briefly, the inoculum was established by the direct colony suspension method using the Prompt™ Inoculation System (Becton Dickinson, Sparks, Md.). The bacteria suspension, which was equal to the turbidity of a 0.5 McFarland standard, was diluted in TSB to a concentration of 1×10^6 colony forming units per ml (CFU/mL). One hundred microliters of the cell suspension was added to flat-bottom polystyrene wells (Corning Costar, Corning, N.Y.) containing 100 μl of TSB, with and without drug. The final inoculum concentration per well was approximately 5×10^5 CFU/mL. The plates were incubated at 37° C. under static conditions in air. At 18 hours (h) post-infection, the optical density of bacterial growth was measured at a wavelength of 595 nm in a microtiter plate reader (Vmax; Molecular Devices, Sunnyvale, Calif.). […] The optical density of bacterial adherence was determined at a wavelength of 550 nm. […] To compensate for background absorbance, optical density readings from wells treated with sterile medium, fixative and stain as described above were averaged and then subtracted from all test and control wells. […]
Reliability of the microtiter-plate adherence assay was assessed with the reference strains S. hominis SP2 (nonadherent) and S. epidermidis RP62A (strongly adherent). The median optical density readings for SP2 and RP62A were 0.059±0.004 and 2.789±0.266, respectively. […]

[1] = system: S. aureus and S. epidermidis strains; assay: Microtiter-plate adherence assay, summary over all strains evaluated; assay type: cell-based, staphylococci; conditions: for effect on bacterial adhesion at subinhibitory concentrations: concentrations less than the MIC, as low as one-fourth the MIC
Experimental: Briefly, the inoculum was established by the direct colony suspension method using the Prompt™ Inoculation System (Becton Dickinson, Sparks, Md.). The bacteria suspension, which was equal to the turbidity of a 0.5 McFarland standard, was diluted in TSB to a concentration of 1×10^6 colony forming units per ml (CFU/mL). One hundred microliters of the cell suspension was added to flat-bottom polystyrene wells (Corning Costar, Corning, N.Y.) containing 100 μl of TSB, with and without drug. The final inoculum concentration per well was approximately 5×10^5 CFU/mL. The plates were incubated at 37° C. under static conditions in air. At 18 hours (h) post-infection, the optical density of bacterial growth was measured at a wavelength of 595 nm in a microtiter plate reader (Vmax; Molecular Devices, Sunnyvale, Calif.). […] Adherent “sessile” cells then were fixed with 3.7% (v/v) formaldehyde/2% (w/v) sodium acetate and stained with 0.1% (w/v) crystal violet. Excess stain was rinsed off with deionized water and the plates were air-dried for 4 h. The optical density of bacterial adherence was determined at a wavelength of 550 nm. Preliminary studies were performed to determine the optimal wavelengths for measuring growth turbidity and stained adherent cells (data not shown). To compensate for background absorbance, optical density readings from wells treated with sterile medium, fixative and stain as described above were averaged and then subtracted from all test and control wells. Relative inhibition of adherence or growth was expressed by the following equation: (OD of control well−OD of treated well/OD of control well)×100, where OD is the mean optical density of six replicate wells from two separate experiments (three replicates per experiment). Control was defined as infected, drug-free cultures.
The primary efficacy variable in this study was the measurement of adherent bacterial cells to polystyrene after 18 h of growth. To determine whether statistically significant differences existed between treatment groups (MIC, ½ MIC, and ¼ MIC) compared with the infected-nontreated controls, the Kruskal-Wallis one-way analysis of variance (ANOVA) was applied for each clinical strain. Statistical significance was defined as p-values ≦0.05. An asterisk (*) was placed by all test values less than or equal to the specified significance level.

[2] = Resistance to thermal decomposition; assay type: physicochemical
Excerpt: The medical device can be, for example, a suture, orthopedic appliance, stent, catheter, guidewire, shunt (e.g., hemodialysis shunt or cerebrospinal shunt), prosthesis (e.g., prosthetic heart valve or prosthetic joint), cardiac pacemaker, neuronal stimulator, or vascular graft. The medical device can be made of biomaterials (i.e., biologically-compatible materials known to those skilled in the art, such as metal, polymeric, or ceramic materials). The antimicrobial agent can be incorporated into the medical device according to methods known to those skilled in the art, such as by immersing the medical device in a solution (e.g., an aqueous solution) containing the antimicrobial agent, or, for example, by methods described in one of the following references: U.S. Pat. No. 3,987,797; U.S. Pat. No. 4,563,485; U.S. Pat. No. 4,875,479; U.S. Pat. No. 4,946,870; U.S. Pat. No. 5,306,289; U.S. Pat. No. 5,584,877; U.S. Pat. No. 5,607,685; U.S. Pat. No. 5,788,979; U.S. Pat. No. 6,143,037; U.S. Pat. No. 6,238,687; WO00/56283; and WO 01/28601, the disclosures of which are incorporated herein by reference. The medical device can include a polymeric material, and the polymeric material can be co-extruded with the antibacterial agent. […]

bacterial adherence = conditions: subinhibitory concentrations; other investigators; cited from earlier work

SMILES | MIC (S. aureus UC-20205) | MIC (S. aureus UC-20206) | promotion of adherence of the nonadherent strain (S. hominis SP2) | effect on bacterial adhesion at subinhibitory concentrations ([1]; five strains) | preventing adherence to polystyrene ([1]; one-fourth the MIC, five strains) | percent inhibition of adherence relative to control ([1]; one-half the MIC, all strains evaluated) | temperature up to which resistant to thermal decomposition [2] | activity against bacterial adherence (bacterial adherence)
CC(=O)NC[C@H]1CN(c2ccc(N3CCOCC3)c(F)c2)C(=O)O1 [Linezolid, (S)-N-[[3-[3-fluoro-4-(4-morpholinyl)phenyl]-2-oxo-5-oxazolidinyl]methyl]acetamide] | 2 µg/mL (≈ 5.93 µM) | 4 µg/mL (≈ 11.9 µM) | Neither linezolid nor vancomycin promoted adherence | surprisingly effective at preventing bacterial adhesion; also recorded: significant inhibitory effects on cell adhesion in all strains evaluated | effective in preventing adherence at one-fourth the MIC in all but one strain | greater than or equal to 99.0% | at least 121 °C | 
CN[C@H](CC(C)C)C(=O)N[C@H]1C(=O)N[C@@H](CC(N)=O)C(=O)N[C@H]2C(=O)N[C@H]3C(=O)N[C@H](C(=O)N[C@H](C(=O)O)c4cc(O)cc(O)c4-c4cc3ccc4O)[C@H](O)c3ccc(c(Cl)c3)Oc3cc2cc(c3O[C@@H]2O[C@H](CO)[C@@H](O)[C@H](O)[C@H]2O[C@H]2C[C@](C)(N)[C@H](O)[C@H](C)O2)Oc2ccc(cc2Cl)[C@H]1O [Vancomycin] |  |  | Neither linezolid nor vancomycin promoted adherence | minimal or no activity against bacterial adhesion; also recorded: did not inhibit staphylococcal adherence in four of the five strains assessed |  |  |  | minimal or no activity against bacterial adherence
